Laboratory results as given in patent US20130295551A1, “MICROFLUIDIC DEVICE AND METHOD FOR MODULATING A GAS ENVIRONMENT OF CELL CULTURES AND TISSUES” (THE BOARD OF TRUSTEES OF THE UNIVERSITY OF ILLINOIS, priority 2012, published 2013).

Experiments:
Format in all cases: cell-based, C57BL/6 mice
[1] = system: islets; assay: Islet mitochondrial hyperpolarization by Rhodamine 123 fluorescence
Method: The effects of hypoxia and intermittent hypoxia preconditioning on calcium were paralleled by changes in insulin secretion and mitochondrial potential, as measured by off-chip insulin ELISA and Rhodamine 123 fluorescence, respectively. Insulin fractions were collected at 1 minute intervals during flow, with a stop-flow incubation period during the glucose exposure, as shown in FIG. 10A. The hypoxic pulse rendered insulin response down to basal levels (even drifting below baseline) while preconditioning improved insulin to 85% of normoxia while exposed to hypoxia. However, all insulin samples were collected in the same manner to account for this issue. Mitochondria hyperpolarization, monitored with Rhodamine uptake and self-quenching, was improved with IH preconditioning compared to hypoxia exposure alone. […] Islets were incubated in 100 μM diazoxide for 10 minutes and washed in Krebs buffer for 10 minutes prior to hypoxia and glucose stimulation. […] Both mitochondrial hyperpolarization and insulin secretion were improved with diazoxide compared to IH+5HD, as shown in FIG. 10B. […] All fluids perfused through the MIIH device were prepared in Krebs Ringer bicarbonate buffer: 129 mM NaCl, 5 mM NaHCO3, 4.7 mM KCl, 1.2 mM KH2PO4, 1 mM CaCl2.2H2O, 1.2 mM MgSO4.7H2O, 10 mM HEPES pH 7.35-7.40. […] FURA was excited at 340 and 380 nm and measured at 510 nm while Rho123 was excited at 495 nm and measured at 530 nm FURA measurements were expressed as a ratio of 340 nm over 380 nm intensities. […] The data was then normalized against the standard normoxic pulse to minimize variation between experiments and the results were expressed as “FURA Ratio %”. Rho123 measurement and the associated hyperpolarization drop were also analyzed similarly by normalizing against a normoxic standard. The insulin ELISA timepoints, measured in ng/mL, was expressed as an index of the maximum value over the baseline average to account for the stop flow during glucose/hypoxic incubation and also varying number of islets in the experiments. […]

[2] = system: islets; assay: Islet insulin secretion, off-chip insulin ELISA
Method: The effects of hypoxia and intermittent hypoxia preconditioning on calcium were paralleled by changes in insulin secretion and mitochondrial potential, as measured by off-chip insulin ELISA and Rhodamine 123 fluorescence, respectively. Insulin fractions were collected at 1 minute intervals during flow, with a stop-flow incubation period during the glucose exposure, as shown in FIG. 10A. The hypoxic pulse rendered insulin response down to basal levels (even drifting below baseline) while preconditioning improved insulin to 85% of normoxia while exposed to hypoxia. However, all insulin samples were collected in the same manner to account for this issue. Mitochondria hyperpolarization, monitored with Rhodamine uptake and self-quenching, was improved with IH preconditioning compared to hypoxia exposure alone. […] Islets were incubated in 100 μM diazoxide for 10 minutes and washed in Krebs buffer for 10 minutes prior to hypoxia and glucose stimulation. […] Both mitochondrial hyperpolarization and insulin secretion were improved with diazoxide compared to IH+5HD, as shown in FIG. 10B. […] Glucose and Krebs buffer flow were only introduced while washing or stimulating the islets, and flow was stopped at all other times. […] The plates were read in a Biotek Synergy 2 plate reader. […] FURA was excited at 340 and 380 nm and measured at 510 nm while Rho123 was excited at 495 nm and measured at 530 nm FURA measurements were expressed as a ratio of 340 nm over 380 nm intensities. […] The data was then normalized against the standard normoxic pulse to minimize variation between experiments and the results were expressed as “FURA Ratio %”. Rho123 measurement and the associated hyperpolarization drop were also analyzed similarly by normalizing against a normoxic standard. The insulin ELISA timepoints, measured in ng/mL, was expressed as an index of the maximum value over the baseline average to account for the stop flow during glucose/hypoxic incubation and also varying number of islets in the experiments. […]

[3] = system: islets; assay: Islet glucose-stimulated calcium response (FURA ratio) under hypoxia in microfluidic device
Method: To quantify their response to hypoxia, FURA-incubated islets were loaded into the multimodal device and exposed to 21%, 10%, and 5% oxygen while monitoring their calcium responses. In the GSIR mechanism, the calcium response correlates with insulin secretion, thus a stimulatory glucose pulse will result in a pulse in intracellular calcium. Under 21% oxygen flow, normoxic for ex vivo islets, the calcium responded with standard bi-phasic profile with magnitudes 1.3 times above their baseline, as shown in FIG. 8A. Note that subsequent hypoxic conditions were normalized against this normoxic pulse. When the islets were exposed to 5% hypoxia for 30 minutes (under zero flow), their calcium response lost both pulse magnitude as well as phase information. […] Quantitatively, the pulse height was depressed below 50% of the normoxic pulse, for both 10% and 5% hypoxia.
Islets were incubated in 100 μM diazoxide for 10 minutes and washed in Krebs buffer for 10 minutes prior to hypoxia and glucose stimulation. […] Both mitochondrial hyperpolarization and insulin secretion were improved with diazoxide compared to IH+5HD, as shown in FIG. 10B.
C57BL/6 mice were sacrificed as islet donors for the murine islet experiments. 5 ml collagenase P solution at 0.375 mg/ml in HBSS was prepared for each animal and kept on ice. The animal was euthanized with CO2 and 3% isoflurane followed by cervical dislocation to ensure no discomfort. The animal was disinfected with 70% ethanol before making a V-incision at the genital area and moving the bowel to clearly expose the bile duct. The ampulla on the surface of duodenum was clamped with a hemostat. The pancreas was then distended (inflated) through the bile duct with a 30-gauge needle with 5 ml syringe containing 2 ml of cold collagenase solution, starting at the gall bladder. The pancreas was then removed and placed in a 15 ml tube containing 2 ml of collagenase solution in a 37° C. water bath for 12 minutes. Then, 10 ml of cold HBSS was added to stop the digestion when 80% of the pancreas has disintegrated. […]

[4] = 100 μM diazoxide, 5% hypoxia, FIG. 10B
[5] = 100 μM diazoxide, not statistically significant

Question: With CCCCCC(O)CCCC(=O)O (stereo not drawn) [5HD, 5-hydroxydecanoic acid] as the molecule, how does the “mitochondrial hyperpolarization with 5HD” value ([1]; IH plus 5HD) read?
Answer: Its value is “decreased mitochondrial hyperpolarization”.

Question: What about the “preconditioned insulin response with 5HD” value ([2]; IH plus 5HD) of the same molecule?
Answer: The value was “decoupling of preconditioned insulin response”.

Question: What about the “preconditioning of islets under hypoxia (FURA profile)” value ([3]; IH (1 m/1 m cycle, 60 min total) and 100 μM 5HD simultaneously) of the same molecule?
Answer: The value was “failed to be preconditioned”.

Question: Which “mitochondrial hyperpolarization compared to IH+5HD” value [1, 4] does the source give for CC1=NS(=O)(=O)c2cc(Cl)ccc2N1 [diazoxide] here?
Answer: The value was “improved”.

Question: And the “mitochondrial hyperpolarization compared to IH preconditioning alone” value [1, 5]?
Answer: The value was “less than that of IH preconditioning alone”.

Question: And the “insulin secretion compared to IH+5HD” value [2, 4]?
Answer: Its value is “improved”.

Question: What about the “insulin response compared to IH preconditioning alone” value [2, 5] of the same molecule?
Answer: The value was “higher average”.

Question: What about the “preconditioning of islets under hypoxia (glucose calcium response)” value ([3]; 100 μM diazoxide 10 minutes, washed in Krebs buffer 10 minutes prior to 5% hypoxia and glucose stimulation) of the same molecule?
Answer: The value was “provided preconditioning benefits”.

Question: And the “calcium response compared to IH preconditioning alone” value [3, 5]?
Answer: Its value is “higher average”.
